Experimental data reported in PubChem BioAssay AID2060898 (Molecular Pharmacology Branch, DTP, NCI, 2025).

System: 616215-338-R-J1-PDC complex spheroid viability
Assay: Anticancer human tumor 616215-338-R-J1-PDC patient-derived colon adenocarcinoma cell line growth inhibition [RAS]
Conditions: for IC50: curve of first compound; for viability, T/C: stronger effect = lower value; active = viability on the fitted dose curve at most 10% of control; inactive = the rest
Outline: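 Agents were tested in combination matrices in half-log decrements from a top concentration at or near clinical Cmax (10 microM if undetermined). Targets were multi-cell spheroids of tumour lines plus HUVEC and MSC stromal cells.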
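Also: spheroids exposed to agents for seven days before viability readout.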
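For viability, T/C in this document: 100% = DMSO vehicle control viability.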

CCc1c2c(nc3ccc(O)cc13)-c1cc3c(c(=O)n1C2)COC(=O)[C@]3(O)CC + CCn1c(-c2cc(N3CCN(C)CC3)cnc2C(C)OC)c2c3cc(ccc31)-c1csc(n1)CC(NC(=O)C1CC1C)C(=O)N1CCCC(N1)C(=O)OCC(C)(C)C2
12.4 nM: IC50 (second compound 0.000949 µM)
< 0.949 nM: IC50 (second compound 0.03 µM) | IC50 (second compound 0.0949 µM) | IC50 (second compound 0.3 µM)
3.33 nM: IC50 (second compound 0.00949 µM)
inactive: viability, T/C (second compound 0.000949 µM, first compound 0.000949 µM) 109% | viability, T/C (second compound 0.000949 µM, first compound 0.003 µM) 104% | viability, T/C (second compound 0.000949 µM, first compound 0.00949 µM) 51.5% | viability, T/C (second compound 0.000949 µM, first compound 0.03 µM) 35.6% | viability, T/C (second compound 0.000949 µM, first compound 0.0949 µM) 21.2% | viability, T/C (second compound 0.000949 µM, first compound 0.3 µM) 13.4% | viability, T/C (second compound 0.003 µM, first compound 0.000949 µM) 109% | viability, T/C (second compound 0.003 µM, first compound 0.003 µM) 94.8% | viability, T/C (second compound 0.003 µM, first compound 0.00949 µM) 29.1% | viability, T/C (second compound 0.003 µM, first compound 0.03 µM) 23.5% | viability, T/C (second compound 0.003 µM, first compound 0.0949 µM) 21.3% | viability, T/C (second compound 0.003 µM, first compound 0.3 µM) 12.1% | viability, T/C (second compound 0.00949 µM, first compound 0.000949 µM) 87.6% | viability, T/C (second compound 0.00949 µM, first compound 0.003 µM) 52.9% | viability, T/C (second compound 0.00949 µM, first compound 0.00949 µM) 21% | viability, T/C (second compound 0.00949 µM, first compound 0.03 µM) 22.7% | viability, T/C (second compound 0.00949 µM, first compound 0.0949 µM) 18.4% | viability, T/C (second compound 0.00949 µM, first compound 0.3 µM) 12.2% | viability, T/C (second compound 0.03 µM, first compound 0.000949 µM) 45.2% | viability, T/C (second compound 0.03 µM, first compound 0.003 µM) 29.1% | viability, T/C (second compound 0.03 µM, first compound 0.00949 µM) 23.2% | viability, T/C (second compound 0.03 µM, first compound 0.03 µM) 19.6% | viability, T/C (second compound 0.03 µM, first compound 0.0949 µM) 15.2% | viability, T/C (second compound 0.03 µM, first compound 0.3 µM) 8.75% | viability, T/C (second compound 0.0949 µM, first compound 0.000949 µM) 36.2% | viability, T/C (second compound 0.0949 µM, first compound 0.003 µM) 28.7% | viability, T/C (second compound 0.0949 µM, first compound 0.00949 µM) 18.1% | viability, T/C (second compound 0.0949 µM, first compound 0.03 µM) 17.6% | viability, T/C (second compound 0.0949 µM, first compound 0.0949 µM) 14.6% | viability, T/C (second compound 0.0949 µM, first compound 0.3 µM) 9.71% | viability, T/C (second compound 0.3 µM, first compound 0.000949 µM) 35.1% | viability, T/C (second compound 0.3 µM, first compound 0.003 µM) 29.8% | viability, T/C (second compound 0.3 µM, first compound 0.00949 µM) 24% | viability, T/C (second compound 0.3 µM, first compound 0.03 µM) 23.1% | viability, T/C (second compound 0.3 µM, first compound 0.0949 µM) 17.5% | viability, T/C (second compound 0.3 µM, first compound 0.3 µM) 10.5%
6.6 nM: IC50 (second compound 0.003 µM)

C=CC(=O)Nc1cc(Nc2nccc(-c3cn(C)c4ccccc34)n2)c(OC)cc1N(C)CCN(C)C + CCn1c(-c2cccnc2C(C)OC)c2c3cc(ccc31)N1CCOC(CC(NC(=O)C(C(C)C)N(C)C(=O)C3(F)CCN(C(=O)C#CC(C)(C)N(C)C)CC3)C(=O)N3CCCC(N3)C(=O)OCC(C)(C)C2)C1
> 1000 nM: IC50 (second compound 0.000949 µM) | IC50 (second compound 0.003 µM) | IC50 (second compound 0.00949 µM) | IC50 (second compound 0.03 µM) | IC50 (second compound 0.0949 µM) | IC50 (second compound 0.3 µM)
inactive: viability, T/C (second compound 0.000949 µM, first compound 0.00316 µM) 98.4% | viability, T/C (second compound 0.000949 µM, first compound 0.01 µM) 105% | viability, T/C (second compound 0.000949 µM, first compound 0.0316 µM) 116% | viability, T/C (second compound 0.000949 µM, first compound 0.1 µM) 103% | viability, T/C (second compound 0.000949 µM, first compound 0.316 µM) 102% | viability, T/C (second compound 0.000949 µM, first compound 1 µM) 68.2% | viability, T/C (second compound 0.003 µM, first compound 0.00316 µM) 103% | viability, T/C (second compound 0.003 µM, first compound 0.01 µM) 106% | viability, T/C (second compound 0.003 µM, first compound 0.0316 µM) 99.8% | viability, T/C (second compound 0.003 µM, first compound 0.1 µM) 112% | viability, T/C (second compound 0.003 µM, first compound 0.316 µM) 110% | viability, T/C (second compound 0.003 µM, first compound 1 µM) 66.2% | viability, T/C (second compound 0.00949 µM, first compound 0.00316 µM) 100% | viability, T/C (second compound 0.00949 µM, first compound 0.01 µM) 99.6% | viability, T/C (second compound 0.00949 µM, first compound 0.0316 µM) 108% | viability, T/C (second compound 0.00949 µM, first compound 0.1 µM) 110% | viability, T/C (second compound 0.00949 µM, first compound 0.316 µM) 107% | viability, T/C (second compound 0.00949 µM, first compound 1 µM) 80% | viability, T/C (second compound 0.03 µM, first compound 0.00316 µM) 109% | viability, T/C (second compound 0.03 µM, first compound 0.01 µM) 105% | viability, T/C (second compound 0.03 µM, first compound 0.0316 µM) 100% | viability, T/C (second compound 0.03 µM, first compound 0.1 µM) 110% | viability, T/C (second compound 0.03 µM, first compound 0.316 µM) 104% | viability, T/C (second compound 0.03 µM, first compound 1 µM) 62.7% | viability, T/C (second compound 0.0949 µM, first compound 0.00316 µM) 105% | viability, T/C (second compound 0.0949 µM, first compound 0.01 µM) 110% | viability, T/C (second compound 0.0949 µM, first compound 0.0316 µM) 111% | viability, T/C (second compound 0.0949 µM, first compound 0.1 µM) 112% | viability, T/C (second compound 0.0949 µM, first compound 0.316 µM) 103% | viability, T/C (second compound 0.0949 µM, first compound 1 µM) 66.9% | viability, T/C (second compound 0.3 µM, first compound 0.00316 µM) 97.1% | viability, T/C (second compound 0.3 µM, first compound 0.01 µM) 104% | viability, T/C (second compound 0.3 µM, first compound 0.0316 µM) 95.9% | viability, T/C (second compound 0.3 µM, first compound 0.1 µM) 89.9% | viability, T/C (second compound 0.3 µM, first compound 0.316 µM) 97.2% | viability, T/C (second compound 0.3 µM, first compound 1 µM) 59%
